Patent US20250215030A1, “STAT MODULATORS AND USES THEREOF” (Recludix Pharma, Inc., priority 2022, published 2025)

Legend:
[1] = molecular target: T1, Recombinant STAT3 protein (STAT3(G127-I722)) (Homo sapiens, UniProt P40763); assay: STAT3 Fluorescence Polarization (FP) Assay; format: binding; settings: STAT3(G127-I722) 25 nM, probe 5-FAM-GpYLPQTV-NH2 2 nM, 45-minute incubation
T1 construct: STAT3(G127-I722)
Summary of the method: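 Serially diluted compounds (1% DMSO) were mixed with 2 nM fluorescent phosphotyrosine peptide and 25 nM STAT3 construct G127-I722, pH 7.4, incubated 45 min at room temperature. IC50 values from fitted polarization curves are reported as categories A (≤100 nM), B, C, D (>10 μM).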

[2] = molecular target: T2, Recombinant STAT6 protein (STAT6(W123-T658)) (Homo sapiens, UniProt P42226); assay: STAT6 Fluorescence Polarization (FP) Assay; format: binding; settings: STAT6(W123-T658) 250 nM, probe 5-FAM-ApYKPFQDLI-NH2 2 nM, 45-minute incubation
T2 construct: STAT6(W123-T658)
T2 sequence (P42226 123-658): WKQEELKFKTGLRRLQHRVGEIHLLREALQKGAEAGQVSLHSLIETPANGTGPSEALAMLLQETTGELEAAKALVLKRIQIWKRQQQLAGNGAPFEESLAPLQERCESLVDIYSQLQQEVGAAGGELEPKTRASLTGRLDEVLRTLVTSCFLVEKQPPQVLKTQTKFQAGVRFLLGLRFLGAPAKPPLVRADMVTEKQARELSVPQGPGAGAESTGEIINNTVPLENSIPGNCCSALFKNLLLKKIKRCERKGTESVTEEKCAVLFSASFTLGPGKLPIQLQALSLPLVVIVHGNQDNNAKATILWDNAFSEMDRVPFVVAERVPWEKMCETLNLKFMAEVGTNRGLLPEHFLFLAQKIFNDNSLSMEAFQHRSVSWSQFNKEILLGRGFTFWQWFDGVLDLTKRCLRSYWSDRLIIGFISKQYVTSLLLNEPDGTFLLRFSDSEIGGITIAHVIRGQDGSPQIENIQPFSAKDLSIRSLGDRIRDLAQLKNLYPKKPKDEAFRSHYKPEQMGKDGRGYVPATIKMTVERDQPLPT
Summary of the method: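 Competitive displacement of a fluorescent phosphotyrosine peptide (2 nM) from recombinant STAT6 W123-T658 (250 nM), 45 min at room temperature in 10 mM HEPES pH 7.4, 50 mM NaCl, 2 mM DTT. mP fitted against log compound for IC50, grouped A (≤300 nM) to D (>30 μM).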

T1 sequence (P40763 127-722, species assumed): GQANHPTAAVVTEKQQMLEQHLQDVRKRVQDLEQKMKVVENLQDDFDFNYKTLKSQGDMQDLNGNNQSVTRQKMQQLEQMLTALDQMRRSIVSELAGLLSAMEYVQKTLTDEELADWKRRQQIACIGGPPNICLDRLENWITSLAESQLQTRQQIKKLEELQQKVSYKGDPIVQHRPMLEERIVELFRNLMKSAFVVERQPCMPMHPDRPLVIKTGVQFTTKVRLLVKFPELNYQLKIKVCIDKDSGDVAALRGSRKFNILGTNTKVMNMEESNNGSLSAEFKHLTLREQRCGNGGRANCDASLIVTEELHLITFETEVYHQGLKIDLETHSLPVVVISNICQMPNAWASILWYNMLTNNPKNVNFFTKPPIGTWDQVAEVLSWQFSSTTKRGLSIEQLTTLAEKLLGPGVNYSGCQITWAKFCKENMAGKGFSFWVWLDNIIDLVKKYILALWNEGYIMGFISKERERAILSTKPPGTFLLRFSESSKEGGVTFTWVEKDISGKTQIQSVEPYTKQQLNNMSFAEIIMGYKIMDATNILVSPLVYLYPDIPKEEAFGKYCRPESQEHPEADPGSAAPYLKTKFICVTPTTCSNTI

## O=C(N[C@H]1C[C@@H]2C[C@@H]2C[C@H]2CC[C@@H](C(=O)N3CCN(C4CCOCC4)CC3)N2C1=O)c1cc2cc(C(F)(F)P(=O)(O)O)ccc2s1 [Compound 115, (difluoro(2-(((3S,6S,7aS,8aR,9aR)-5-ox0-3-(4-(tetrahydro-2H-pyran-4-yl)piperazine-1-carbonyl)decahydro-1H-cyclopropa[d]pyrrolo[1,2-a]azocin-6-yl)carbamoyl)benzo[b]thiophen-5-yl)methyl)phosphonic acid]
[1]
  IC50: 0.1 to 1 µM
[2]
  IC50: 0.3 to 3 µM

## CC(=O)N1CC[C@@H](NC(=O)[C@@H]2CC[C@@H]3C[C@H]4C[C@H]4C[C@H](NC(=O)c4cc5cc(C(F)(F)P(=O)(O)O)ccc5s4)C(=O)N32)C1 [Compound 116, ((2-(((3S,6S,7aS,9aR)-3-(((R)-1-acetylpyrrolidin-3-yl)carbamoyl)-5-oxodecahydro-1H-cyclopropa[d]pyrrolo[1,2-a]azocin-6-yl)carbamoyl)benzo[b]thiophen-5-yl)difluoromethyl)phosphonic acid]
[1]
  IC50: < 0.1 µM
[2]
  IC50: 0.3 to 3 µM

## CC(=O)N1CC[C@H](NC(=O)[C@@H]2CC[C@@H]3C[C@H]4C[C@H]4C[C@H](NC(=O)c4cc5cc(C(F)(F)P(=O)(O)O)ccc5s4)C(=O)N32)C1 [Compound 117, ((2-(((3S,6S,7aS,8aR,9aR)-3-(((S)-1-acetylpyrrolidin-3-yl)carbamoyl)-5-oxodecahydro-1H-cyclopropa[d]pyrrolo[1,2-a]azocin-6-yl)carbamoyl)benzo[b]thiophen-5-yl)difluoromethyl)phosphonic acid]
[1]
  IC50: < 0.1 µM
[2]
  IC50: 0.3 to 3 µM

## NC(=O)N1CC[C@@H](NC(=O)[C@@H]2CC[C@@H]3C[C@H]4C[C@H]4C[C@H](NC(=O)c4cc5cc(C(F)(F)P(=O)(O)O)ccc5s4)C(=O)N32)C1 [Compound 118, ((2-(((3S,6S,7aS,8aR,9aR)-3-(((R)-1-carbamoylpyrrolidin-3-yl)carbamoyl)-5-oxodecahydro-1H-cyclopropa[d]pyrrolo[1,2-a]azocin-6-yl)carbamoyl)benzo[b]thiophen-5-yl)difluoromethyl)phosphonic acid]
[1]
  IC50: < 0.1 µM
[2]
  IC50: 0.3 to 3 µM

## O=C(N[C@H]1C[C@@H]2C[C@@H]2C[C@H]2CC[C@@H](C(=O)N[C@@H]3CCN(C4CCOCC4)C3)N2C1=O)c1cc2cc(C(F)(F)P(=O)(O)O)ccc2s1 [Compound 119, (difluoro(2-(((3S,6S,7aS,8aR,9aR)-5-oxo-3-(((R)-1-(tetrahydro-2H-pyran-4-yl)pyrrolidin-3-yl)carbamoyl)decahydro-1H-cyclopropa[d]pyrrolo[1,2-a]azocin-6-yl)carbamoyl)benzo[b]thiophen-5-yl)methyl)phosphonic acid]
[1]
  IC50: 0.1 to 1 µM
[2]
  IC50: 3 to 30 µM

## O=C(N[C@H]1C[C@@H]2C[C@@H]2C[C@H]2CC[C@@H](C(=O)N[C@@H]3CCN(c4cn[nH]c4)C3)N2C1=O)c1cc2cc(C(F)(F)P(=O)(O)O)ccc2s1 [Compound 120, ((2-(((3S,6S,7aS,8aR,9aR)-3-(((R)-1-(1H-pyrazol-4-yl)pyrrolidin-3-yl)carbamoyl)-5-oxodecahydro-1H-cyclopropa[d]pyrrolo[1,2-a]azocin-6-yl)carbamoyl)benzo[b]thiophen-5-yl)difluoromethyl)phosphonic acid]
[1]
  IC50: 0.1 to 1 µM
[2]
  IC50: 0.3 to 3 µM

## O=C(N[C@H]1C[C@H]2C[C@H]2C[C@H]2CC[C@@H](C(=O)N3CC(c4ccccc4)C3)N2C1=O)c1cc2cc(C(F)(F)P(=O)(O)O)ccc2s1 [Compound 121]
[1]
  IC50: < 0.1 µM
[2]
  IC50: 0.3 to 3 µM

## CC(C)(CNC(=O)[C@@H]1CC[C@@H]2C[C@@H]3C[C@@H]3C[C@H](NC(=O)c3cc4cc(C(F)(F)P(=O)(O)O)ccc4s3)C(=O)N21)c1cccnc1 [Compound 122, (difluoro(2-(((3S,6S,7aR,8aS,9aR)-3-((2-methyl-2-(pyridin-3-yl)propyl)carbamoyl)-5-oxodecahydro-1H-cyclopropa[d]pyrrolo[1,2-a]azocin-6-yl)carbamoyl)benzo[b]thiophen-5-yl)methyl)phosphonic acid]
[1]
  IC50: 0.1 to 1 µM
[2]
  IC50: 3 to 30 µM

## O=C(N[C@H]1C[C@H]2C[C@H]2C[C@H]2CC[C@@H](C(=O)NCC(CO)c3cccnc3)N2C1=O)c1cc2cc(C(F)(F)P(=O)(O)O)ccc2s1 (stereo partly drawn) [Compound 123, (difluoro(2-(((3S,6S,7aR,8aS,9aR)-3-((3-hydroxy-2-(pyridin-3-yl)propyl)carbamoyl)-5-oxodecahydro-1H-cyclopropa[d]pyrrolo[1,2-a]azocin-6-yl)carbamoyl)benzo[b]thiophen-5-yl)methyl)phosphonic acid]
[1]
  IC50: 0.1 to 1 µM
[2]
  IC50: 3 to 30 µM

## O=C(N[C@H]1C[C@H]2C[C@H]2C[C@H]2CC[C@@H](C(=O)NCc3c[nH]c4ncccc34)N2C1=O)c1cc2cc(C(F)(F)P(=O)(O)O)ccc2s1 [Compound 124, ((2-(((3S,6S,7aR,8aS,9aR)-3-(((1H-pyrrolo[2,3-b]pyridin-3-yl)methyl)carbamoyl)-5-oxodecahydro-1H-cyclopropa[d]pyrrolo[1,2-a]azocin-6-yl)carbamoyl)benzo[b]thiophen-5-yl)difluoromethyl)phosphonic acid]
[1]
  IC50: < 0.1 µM
[2]
  IC50: 0.3 to 3 µM

## O=C(N[C@H]1C[C@H]2C[C@H]2C[C@H]2CC[C@@H](C(=O)N3CCN(C4CCOCC4)CC3)N2C1=O)c1cc2cc(C(F)(F)P(=O)(O)O)ccc2s1 [Compound 125, (difluoro(2-(((3S,6S,7aR,8aS,9aR)-5-ox0-3-(4-(tetrahydro-2H-pyran-4-yl)piperazine-1-carbonyl)decahydro-1H-cyclopropa[d]pyrrolo[1,2-a]azocin-6-yl)carbamoyl)benzo[b]thiophen-5-yl)methyl)phosphonic acid]
[1]
  IC50: 0.1 to 1 µM
[2]
  IC50: 3 to 30 µM

## CC(=O)N1C[C@H](NC(=O)[C@@H]2CC[C@@H]3C[C@@H]4C[C@@H]4C[C@H](NC(=O)c4cc5cc(C(F)(F)P(=O)(O)O)ccc5s4)C(=O)N32)[C@@H](F)C1 [Compound 126, ((2-(((3S,6S,7aR,8aS,9aR)-3-(((3S,4S)-1-acetyl-4-fluoropyrrolidin-3-yl)carbamoyl)-5-oxodecahydro-1H-cyclopropa[d]pyrrolo[1,2-a]azocin-6-yl)carbamoyl)benzo[b]thiophen-5-yl)difluoromethyl)phosphonic acid]
[1]
  IC50: < 0.1 µM
[2]
  IC50: 0.3 to 3 µM

## CC(=O)N1C[C@@H](F)[C@@H](NC(=O)[C@@H]2CC[C@@H]3C[C@@H]4C[C@@H]4C[C@H](NC(=O)c4cc5cc(C(F)(F)P(=O)(O)O)ccc5s4)C(=O)N32)C1 [Compound 127, ((2-(((3S,6S,7aR,8aS,9aR)-3-(((3S,4R)-1-acetyl-4-fluoropyrrolidin-3-yl)carbamoyl)-5-oxodecahydro-1H-cyclopropa[d]pyrrolo[1,2-a]azocin-6-yl)carbamoyl)benzo[b]thiophen-5-yl)difluoromethyl)phosphonic acid]
[1]
  IC50: < 0.1 µM
[2]
  IC50: 3 to 30 µM

## O=C(N[C@H]1C[C@H]2C[C@H]2C[C@H]2CC[C@@H](C(=O)N[C@H]3CN(c4cccnc4)C[C@@H]3F)N2C1=O)c1cc2cc(C(F)(F)P(=O)(O)O)ccc2s1 [Compound 128, (difluoro(2-(((3S,6S,7aR,8aS,9aR)-3-(((3S,4S)-4-fluoro-1-(pyridin-3-yl)pyrrolidin-3-yl)carbamoyl)-5-oxodecahydro-1H-cyclopropa[d]pyrrolo[1,2-a]azocin-6-yl)carbamoyl)benzo[b]thiophen-5-yl)methyl)phosphonic acid]
[1]
  IC50: < 0.1 µM
[2]
  IC50: 0.3 to 3 µM

## O=C(N[C@H]1C[C@H]2C[C@H]2C[C@H]2CC[C@@H](C(=O)N[C@H]3CN(c4cccnc4)C[C@H]3F)N2C1=O)c1cc2cc(C(F)(F)P(=O)(O)O)ccc2s1 [Compound 129, (difluoro(2-(((3S,6S,7aR,8aS,9aR)-3-(((3S,4R)-4-fluoro-1-(pyridin-3-yl)pyrrolidin-3-yl)carbamoyl)-5-oxodecahydro-1H-cyclopropa[d]pyrrolo[1,2-a]azocin-6-yl)carbamoyl)benzo[b]thiophen-5-yl)methyl)phosphonic acid]
[1]
  IC50: < 0.1 µM
[2]
  IC50: 3 to 30 µM

## C[C@@H]1CN(C(=O)C2CN(C(=O)[C@@H]3CC[C@@H]4C[C@H]5C[C@H]5C[C@H](NC(=O)c5cc6cc(C(F)(F)P(=O)(O)O)ccc6s5)C(=O)N43)C2)CCO1 [Example 1, (difluoro(2-(((3S,6S,7aS,8aR,9aR)-3-(3-((R)-2-methylmorpholine-4-carbonyl)azetidine-1-carbonyl)-5-oxodecahydro-1H-cyclopropa[d]pyrrolo[1,2-a]azocin-6-yl)carbamoyl)benzo[b]thiophen-5-yl)methyl)phosphonic acid]
[1]
  IC50: < 0.1 µM
[2]
  IC50: 3 to 30 µM
